Measurements taken from ChEMBL document CHEMBL1201862, “PubChem BioAssay data set” (2004).
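Tested at 5 concentrations; 48 h exposure; 96-well plates; endpoints linearly interpolated, else capped at highest concentration. The concentration for 50% growth inhibition is given as GI50.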 Calls of active or inactive are those of the source. Rule as the data show it: active = GI50 up to about 1.1 µM and inactive = higher.

Experiments:
Test in all cases: growth of human tumour cells (NCI), 48 h
786-0 = system: 786-0
A498 = system: A498
A549 = system: A549
ACHN = system: ACHN
BT-549 = system: BT-549
CAKI-1 = system: CAKI-1
COLO 205 = system: COLO 205
DU-145 = system: DU-145
EKVX = system: EKVX
HCC 2998 = system: HCC 2998
HCT-116 = system: HCT-116
HCT-15 = system: HCT-15
HL-60 = system: HL-60
HOP-62 = system: HOP-62
HOP-92 = system: HOP-92
HT-29 = system: HT-29
Hs-578T = system: Hs-578T
IGROV-1 = system: IGROV-1
K562 = system: K562
KM12 = system: KM12
LOX IMVI = system: LOX IMVI
M14 = system: M14
MCF7 = system: MCF7
MDA-MB-231 = system: MDA-MB-231
MDA-MB-435 = system: MDA-MB-435
MDA-N = system: MDA-N
MOLT-4 = system: MOLT-4
Malme-3M = system: Malme-3M
NCI-H226 = system: NCI-H226
NCI-H23 = system: NCI-H23
NCI-H460 = system: NCI-H460
NCI-H522 = system: NCI-H522
NCI/ADR-RES = system: NCI/ADR-RES
OVCAR-3 = system: OVCAR-3
OVCAR-4 = system: OVCAR-4
OVCAR-5 = system: OVCAR-5
OVCAR-8 = system: OVCAR-8
PC-3 = system: PC-3
RPMI-8226 = system: RPMI-8226
RXF 393 = system: RXF 393
SF-268 = system: SF-268
SF-295 = system: SF-295
SF-539 = system: SF-539
SK-MEL-28 = system: SK-MEL-28
SK-MEL-2 = system: SK-MEL-2
SK-MEL-5 = system: SK-MEL-5
SK-OV-3 = system: SK-OV-3
SN12C = system: SN12C
SNB-19 = system: SNB-19
SNB-75 = system: SNB-75
SR = system: SR
SW-620 = system: SW-620
T47D = system: T47D
TK-10 = system: TK-10
U-251 = system: U-251
UACC-257 = system: UACC-257
UACC-62 = system: UACC-62
UO-31 = system: UO-31
CCRF-CEM = system: CCRF-CEM

NS(=O)(=O)c1ccc(NC(=O)Nc2ccccc2F)cc1
GI50 (786-0): > 100 µM (inactive) | GI50 (A498): > 100 µM (inactive) | GI50 (A549): > 100 µM (inactive) | GI50 (ACHN): > 100 µM (inactive) | GI50 (BT-549): > 100 µM (inactive) | GI50 (CAKI-1): > 100 µM (inactive) | GI50 (COLO 205): > 100 µM (inactive) | GI50 (DU-145): > 100 µM (inactive) | GI50 (EKVX): > 100 µM (inactive) | GI50 (HCC 2998): > 100 µM (inactive) | GI50 (HCT-116): > 100 µM (inactive) | GI50 (HCT-15): > 100 µM | GI50 (HL-60): > 100 µM (inactive) | GI50 (HOP-62): > 100 µM (inactive) | GI50 (HOP-92): > 100 µM (inactive) | GI50 (HT-29): 76 µM (inactive) | GI50 (Hs-578T): > 100 µM (inactive) | GI50 (IGROV-1): > 100 µM (inactive) | GI50 (K562): > 100 µM (inactive) | GI50 (KM12): > 100 µM (inactive) | GI50 (LOX IMVI): > 100 µM (inactive) | GI50 (M14): 82.4 µM (inactive) | GI50 (MCF7): > 100 µM (inactive) | GI50 (MDA-MB-231): > 100 µM (inactive) | GI50 (MDA-MB-435): > 100 µM (inactive) | GI50 (MDA-N): > 100 µM (inactive) | GI50 (MOLT-4): > 100 µM (inactive) | GI50 (Malme-3M): > 100 µM (inactive) | GI50 (NCI-H226): > 100 µM (inactive) | GI50 (NCI-H23): > 100 µM (inactive) | GI50 (NCI-H460): > 100 µM (inactive) | GI50 (NCI-H522): > 100 µM (inactive) | GI50 (NCI/ADR-RES): > 100 µM (inactive) | GI50 (OVCAR-3): > 100 µM (inactive) | GI50 (OVCAR-4): > 100 µM (inactive) | GI50 (OVCAR-5): > 100 µM (inactive) | GI50 (OVCAR-8): > 100 µM (inactive) | GI50 (PC-3): > 100 µM (inactive) | GI50 (RPMI-8226): > 100 µM (inactive) | GI50 (RXF 393): > 100 µM (inactive) | GI50 (SF-268): > 100 µM (inactive) | GI50 (SF-295): 0.243 µM (active) | GI50 (SF-539): > 100 µM (inactive) | GI50 (SK-MEL-28): > 100 µM (inactive) | GI50 (SK-MEL-2): > 100 µM (inactive) | GI50 (SK-MEL-5): > 100 µM (inactive) | GI50 (SK-OV-3): > 100 µM (inactive) | GI50 (SN12C): > 100 µM (inactive) | GI50 (SNB-19): > 100 µM (inactive) | GI50 (SNB-75): > 100 µM (inactive) | GI50 (SR): > 100 µM (inactive) | GI50 (SW-620): > 100 µM (inactive) | GI50 (T47D): 52.5 µM (inactive) | GI50 (TK-10): > 100 µM (inactive) | GI50 (U-251): > 100 µM (inactive) | GI50 (UACC-257): > 100 µM (inactive) | GI50 (UACC-62): 72.3 µM (inactive) | GI50 (UO-31): 41.7 µM (inactive)

CSc1nc2ccccc2c(=O)n1-c1cccc(C)c1
GI50 (786-0): > 100 µM (inactive) | GI50 (A498): 19.9 µM (inactive) | GI50 (A549): 94.2 µM (inactive) | GI50 (ACHN): 97.9 µM (inactive) | GI50 (BT-549): > 100 µM (inactive) | GI50 (CAKI-1): 95.1 µM (inactive) | GI50 (CCRF-CEM): 32.6 µM (inactive) | GI50 (COLO 205): 48.9 µM (inactive) | GI50 (DU-145): > 100 µM (inactive) | GI50 (EKVX): 73.6 µM (inactive) | GI50 (HCC 2998): 15.6 µM (inactive) | GI50 (HCT-116): 47.8 µM (inactive) | GI50 (HCT-15): 36.2 µM | GI50 (HL-60): 2.58 µM (inactive) | GI50 (HOP-62): > 100 µM (inactive) | GI50 (HOP-92): 26.5 µM (inactive) | GI50 (HT-29): 38.6 µM (inactive) | GI50 (Hs-578T): 47.4 µM (inactive) | GI50 (IGROV-1): 39.2 µM (inactive) | GI50 (K562): 33 µM (inactive) | GI50 (KM12): 45.3 µM (inactive) | GI50 (LOX IMVI): 53.1 µM (inactive) | GI50 (M14): 95.5 µM (inactive) | GI50 (MCF7): 32.5 µM (inactive) | GI50 (MDA-MB-231): > 100 µM (inactive) | GI50 (MDA-MB-435): 29.1 µM (inactive) | GI50 (MDA-N): 23.6 µM (inactive) | GI50 (MOLT-4): 28.8 µM (inactive) | GI50 (Malme-3M): > 100 µM (inactive) | GI50 (NCI-H226): > 100 µM (inactive) | GI50 (NCI-H23): > 100 µM (inactive) | GI50 (NCI-H460): 36 µM (inactive) | GI50 (NCI-H522): 67.8 µM (inactive) | GI50 (NCI/ADR-RES): 48.4 µM (inactive) | GI50 (OVCAR-3): > 100 µM (inactive) | GI50 (OVCAR-4): 86.7 µM (inactive) | GI50 (OVCAR-5): > 100 µM (inactive) | GI50 (OVCAR-8): > 100 µM (inactive) | GI50 (PC-3): 46.6 µM (inactive) | GI50 (RPMI-8226): 39.4 µM (inactive) | GI50 (RXF 393): 81.8 µM (inactive) | GI50 (SF-268): 99.1 µM (inactive) | GI50 (SF-295): 95.5 µM (inactive) | GI50 (SF-539): 78.9 µM (inactive) | GI50 (SK-MEL-28): > 100 µM (inactive) | GI50 (SK-MEL-2): 70.5 µM (inactive) | GI50 (SK-MEL-5): 21.9 µM (inactive) | GI50 (SK-OV-3): > 100 µM (inactive) | GI50 (SN12C): > 100 µM (inactive) | GI50 (SNB-19): > 100 µM (inactive) | GI50 (SNB-75): 32 µM (inactive) | GI50 (SR): 15.7 µM (inactive) | GI50 (SW-620): 31.9 µM (inactive) | GI50 (T47D): 29.2 µM (inactive) | GI50 (TK-10): > 100 µM (inactive) | GI50 (U-251): > 100 µM (inactive) | GI50 (UACC-257): 31.1 µM (inactive) | GI50 (UACC-62): 71 µM (inactive) | GI50 (UO-31): 0.364 µM (active)

[O-][n+]1onc2c3nn(-c4ccccc4)nc3ccc21
GI50 (786-0): > 100 µM (inactive) | GI50 (A498): > 100 µM (inactive) | GI50 (A549): > 100 µM (inactive) | GI50 (ACHN): 88.3 µM (inactive) | GI50 (BT-549): > 82.6 µM (inactive) | GI50 (CAKI-1): > 100 µM (inactive) | GI50 (CCRF-CEM): 25.6 µM (inactive) | GI50 (COLO 205): 61.8 µM (inactive) | GI50 (DU-145): 17.8 µM (inactive) | GI50 (EKVX): > 74.8 µM (inactive) | GI50 (HCC 2998): 15.6 µM (inactive) | GI50 (HCT-116): > 100 µM (inactive) | GI50 (HCT-15): 49.5 µM | GI50 (HL-60): 2.35 µM (inactive) | GI50 (HOP-62): 77.1 µM (inactive) | GI50 (HOP-92): > 100 µM (inactive) | GI50 (HT-29): 35.2 µM (inactive) | GI50 (Hs-578T): 32.1 µM (inactive) | GI50 (IGROV-1): > 100 µM (inactive) | GI50 (K562): > 100 µM (inactive) | GI50 (KM12): 18.6 µM (inactive) | GI50 (LOX IMVI): 13.2 µM (inactive) | GI50 (M14): > 100 µM (inactive) | GI50 (MCF7): 7.69 µM (inactive) | GI50 (MDA-MB-231): > 100 µM (inactive) | GI50 (MDA-MB-435): > 100 µM (inactive) | GI50 (MDA-N): > 100 µM (inactive) | GI50 (MOLT-4): 5.08 µM (inactive) | GI50 (Malme-3M): > 100 µM (inactive) | GI50 (NCI-H226): > 100 µM (inactive) | GI50 (NCI-H23): 41.6 µM (inactive) | GI50 (NCI-H460): > 100 µM (inactive) | GI50 (NCI-H522): > 96.2 µM (inactive) | GI50 (NCI/ADR-RES): > 100 µM (inactive) | GI50 (OVCAR-3): 22.2 µM (inactive) | GI50 (OVCAR-4): > 100 µM (inactive) | GI50 (OVCAR-5): > 100 µM (inactive) | GI50 (OVCAR-8): > 91.4 µM (inactive) | GI50 (PC-3): > 83.2 µM (inactive) | GI50 (RPMI-8226): 6.32 µM (inactive) | GI50 (RXF 393): > 65.9 µM (inactive) | GI50 (SF-268): > 86.7 µM (inactive) | GI50 (SF-295): > 100 µM (inactive) | GI50 (SF-539): > 100 µM (inactive) | GI50 (SK-MEL-28): > 100 µM (inactive) | GI50 (SK-MEL-2): > 100 µM (inactive) | GI50 (SK-MEL-5): > 100 µM (inactive) | GI50 (SK-OV-3): > 100 µM (inactive) | GI50 (SN12C): > 100 µM (inactive) | GI50 (SNB-19): > 100 µM (inactive) | GI50 (SNB-75): > 100 µM (inactive) | GI50 (SR): 4.43 µM (inactive) | GI50 (SW-620): 65.8 µM (inactive) | GI50 (T47D): 7.4 µM (inactive) | GI50 (TK-10): > 71.1 µM (inactive) | GI50 (U-251): > 100 µM (inactive) | GI50 (UACC-257): 28.8 µM (inactive) | GI50 (UACC-62): > 86.1 µM (inactive) | GI50 (UO-31): > 100 µM (inactive)
